These results are taken from PMC8657075 (Journal of biotechnology, 2021).

Test [1] has as its target T1, dopamine transporter (DAT) (Rattus norvegicus, UniProt P23977). The test is described as follows: [3H]GBR […] radioligand displacement, rat striatal membranes. The format is binding. (Loss of bound radioactivity is the signal in a displacement assay; it reports binding, not function.)
Test [2] addresses T1, dopamine transporter (DAT). The test is described as follows: [3H]GBR […] radioligand displacement. Format: binding.

T1 sequence (P23977 whole entry): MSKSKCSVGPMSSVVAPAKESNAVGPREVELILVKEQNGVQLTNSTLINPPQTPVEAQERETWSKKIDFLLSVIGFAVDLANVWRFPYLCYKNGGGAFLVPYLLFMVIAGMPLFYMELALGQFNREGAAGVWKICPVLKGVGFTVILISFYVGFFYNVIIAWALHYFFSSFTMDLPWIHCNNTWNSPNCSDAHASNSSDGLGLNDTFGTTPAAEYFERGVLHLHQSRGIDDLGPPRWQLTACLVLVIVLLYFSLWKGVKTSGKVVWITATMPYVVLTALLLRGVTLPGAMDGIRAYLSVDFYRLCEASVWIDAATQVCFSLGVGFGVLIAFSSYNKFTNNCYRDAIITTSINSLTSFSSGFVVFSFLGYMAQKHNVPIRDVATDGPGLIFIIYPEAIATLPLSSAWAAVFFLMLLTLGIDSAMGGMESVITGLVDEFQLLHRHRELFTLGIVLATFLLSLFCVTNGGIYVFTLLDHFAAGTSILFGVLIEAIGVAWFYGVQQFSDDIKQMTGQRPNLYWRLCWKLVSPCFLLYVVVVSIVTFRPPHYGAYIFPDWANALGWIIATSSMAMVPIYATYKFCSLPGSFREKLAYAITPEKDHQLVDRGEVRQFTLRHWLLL

Turning to `CN1CCCC2C(c3ccccc3)C(C3=NCCCC3)C(c3ccccc3)CC21` (centres unmarked) [lobinaline], in test [1], the Ki – broadly, a dissociation constant, usually derived from enzyme kinetics or from competition with a known ligand – stood at 2.54 µM.

lobinaline N-oxide: the Ki in test [2] was determined as 132 µM.
